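GI50 marks 50% less growth. TGI: total growth inhibition.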
Columns and labels:
Assay in all cases: NCI tumour cell line growth inhibition, 384-well format
SK-MEL-5 melanoma = tested on: SK-MEL-5 melanoma
K-562 leukemia = tested on: K-562 leukemia
A498 renal = tested on: A498 renal
SNB-75 CNS = tested on: SNB-75 CNS
T-47D breast = tested on: T-47D breast
ACHN renal = tested on: ACHN renal
RPMI-8226 leukemia = tested on: RPMI-8226 leukemia
UACC-62 melanoma = tested on: UACC-62 melanoma
A549 NSCLC = tested on: A549 NSCLC
IGROV1 ovarian = tested on: IGROV1 ovarian
NCI-H322M lung = tested on: NCI-H322M lung
CAKI-1 renal = tested on: CAKI-1 renal
KM12 colon = tested on: KM12 colon
SNB-19 CNS = tested on: SNB-19 CNS
NCI-H460 NSCLC = tested on: NCI-H460 NSCLC
UACC-257 melanoma = tested on: UACC-257 melanoma
HCT-15 colon = tested on: HCT-15 colon
NCI/ADR-RES ovarian = tested on: NCI/ADR-RES ovarian
HOP-92 NSCLC = tested on: HOP-92 NSCLC
SK-OV-3 ovarian = tested on: SK-OV-3 ovarian
LOX IMVI melanoma = tested on: LOX IMVI melanoma
PC-3 prostate = tested on: PC-3 prostate
HT29 colon = tested on: HT29 colon
OVCAR-5 ovarian = tested on: OVCAR-5 ovarian
OVCAR-4 ovarian = tested on: OVCAR-4 ovarian
MDA-MB-231 breast = tested on: MDA-MB-231 breast
SK-MEL-2 melanoma = tested on: SK-MEL-2 melanoma
M14 melanoma = tested on: M14 melanoma
MDA-MB-468 breast = tested on: MDA-MB-468 breast
HCC-2998 colon = tested on: HCC-2998 colon
786-0 renal = tested on: 786-0 renal
SR leukemia = tested on: SR leukemia
SF-295 CNS = tested on: SF-295 CNS
RXF 393 renal = tested on: RXF 393 renal
HS 578T breast = tested on: HS 578T breast
U251 glioblastoma = tested on: U251 glioblastoma
COLO 205 colon = tested on: COLO 205 colon
MDA-MB-435 melanoma = tested on: MDA-MB-435 melanoma
NCI-H522 lung = tested on: NCI-H522 lung
NCI-H226 lung = tested on: NCI-H226 lung
HCT-116 colon = tested on: HCT-116 colon
BT-549 breast = tested on: BT-549 breast
SF-268 CNS = tested on: SF-268 CNS
SF-539 CNS = tested on: SF-539 CNS
NCI-H23 lung = tested on: NCI-H23 lung
HL-60(TB) leukemia = tested on: HL-60(TB) leukemia
MCF7 breast = tested on: MCF7 breast
MOLT-4 leukemia = tested on: MOLT-4 leukemia
SN12C renal = tested on: SN12C renal
EKVX NSCLC = tested on: EKVX NSCLC
MALME-3M melanoma = tested on: MALME-3M melanoma
CCRF-CEM leukemia = tested on: CCRF-CEM leukemia
UO-31 renal = tested on: UO-31 renal

SMILES: CC(C)c1cc(-c2n[nH]c(=O)n2-c2ccc3c(ccn3C)c2)c(O)cc1O
- GI50 (SK-MEL-5 melanoma): < 10 nM
- TGI (SK-MEL-5 melanoma): 3690 nM
- GI50 (K-562 leukemia): < 10 nM
- TGI (K-562 leukemia): 27 nM
- GI50 (A498 renal): 26.1 nM
- TGI (A498 renal): 17200 nM
- GI50 (SNB-75 CNS): < 10 nM
- TGI (SNB-75 CNS): 46 nM
- GI50 (T-47D breast): 28.2 nM
- TGI (T-47D breast): 1570 nM
- GI50 (ACHN renal): < 10 nM
- TGI (ACHN renal): > 100000 nM
- GI50 (RPMI-8226 leukemia): < 10 nM
- TGI (RPMI-8226 leukemia): 12.9 nM
- GI50 (UACC-62 melanoma): < 10 nM
- TGI (UACC-62 melanoma): 31.6 nM
- GI50 (A549 NSCLC): < 10 nM
- TGI (A549 NSCLC): 14000 nM
- GI50 (IGROV1 ovarian): < 10 nM
- TGI (IGROV1 ovarian): 21.4 nM
- GI50 (NCI-H322M lung): 19.9 nM
- TGI (NCI-H322M lung): 16200 nM
- GI50 (CAKI-1 renal): 19.5 nM
- TGI (CAKI-1 renal): 18000 nM
- GI50 (KM12 colon): < 10 nM
- TGI (KM12 colon): 84.9 nM
- GI50 (SNB-19 CNS): 13.4 nM
- TGI (SNB-19 CNS): 74.5 nM
- GI50 (NCI-H460 NSCLC): < 10 nM
- TGI (NCI-H460 NSCLC): < 10 nM
- GI50 (UACC-257 melanoma): 42.4 nM
- TGI (UACC-257 melanoma): 22600 nM
- GI50 (HCT-15 colon): < 10 nM
- TGI (HCT-15 colon): 13100 nM
- GI50 (NCI/ADR-RES ovarian): 22.6 nM
- TGI (NCI/ADR-RES ovarian): 69.1 nM
- GI50 (HOP-92 NSCLC): 11.8 nM
- TGI (HOP-92 NSCLC): 36.3 nM
- GI50 (SK-OV-3 ovarian): 12.3 nM
- TGI (SK-OV-3 ovarian): 2440 nM
- GI50 (LOX IMVI melanoma): < 10 nM
- TGI (LOX IMVI melanoma): 20.7 nM
- GI50 (PC-3 prostate): 10.2 nM
- TGI (PC-3 prostate): 52.7 nM
- GI50 (HT29 colon): 36.4 nM
- TGI (HT29 colon): 13400 nM
- GI50 (OVCAR-5 ovarian): 21.8 nM
- TGI (OVCAR-5 ovarian): 13500 nM
- GI50 (OVCAR-4 ovarian): < 10 nM
- TGI (OVCAR-4 ovarian): > 100000 nM
- GI50 (MDA-MB-231 breast): 19.1 nM
- TGI (MDA-MB-231 breast): 72 nM
- GI50 (SK-MEL-2 melanoma): < 10 nM
- TGI (SK-MEL-2 melanoma): < 10 nM
- GI50 (M14 melanoma): < 10 nM
- TGI (M14 melanoma): 2690 nM
- GI50 (MDA-MB-468 breast): < 10 nM
- TGI (MDA-MB-468 breast): < 10 nM
- GI50 (HCC-2998 colon): < 10 nM
- TGI (HCC-2998 colon): 15.6 nM
- GI50 ([…]-0 renal): < 10 nM
- TGI (786-0 renal): 78.1 nM
- GI50 (SR leukemia): < 10 nM
- TGI (SR leukemia): < 10 nM
- GI50 (SF-295 CNS): 17 nM
- TGI (SF-295 CNS): 46.6 nM
- GI50 (RXF 393 renal): < 10 nM
- TGI (RXF 393 renal): 11500 nM
- GI50 (HS 578T breast): < 10 nM
- TGI (HS 578T breast): 61.5 nM
- GI50 (U251 glioblastoma): < 10 nM
- TGI (U251 glioblastoma): 24.3 nM
- GI50 (COLO 205 colon): < 10 nM
- TGI (COLO 205 colon): 56.7 nM
- GI50 (MDA-MB-435 melanoma): < 10 nM
- TGI (MDA-MB-435 melanoma): 22600 nM
- GI50 (NCI-H522 lung): < 10 nM
- TGI (NCI-H522 lung): < 10 nM
- GI50 (NCI-H226 lung): 46.5 nM
- TGI (NCI-H226 lung): 603 nM
- GI50 (HCT-116 colon): 18.8 nM
- TGI (HCT-116 colon): 10500 nM
- GI50 (BT-549 breast): < 10 nM
- TGI (BT-549 breast): < 10 nM
- GI50 (SF-268 CNS): 15.4 nM
- TGI (SF-268 CNS): 28400 nM
- GI50 (SF-539 CNS): < 10 nM
- TGI (SF-539 CNS): < 10 nM
- GI50 (NCI-H23 lung): < 10 nM
- TGI (NCI-H23 lung): 23.8 nM
- GI50 (HL-60(TB) leukemia): < 10 nM
- TGI (HL-60(TB) leukemia): < 10 nM
- GI50 (MCF7 breast): < 10 nM
- TGI (MCF7 breast): 16400 nM
- GI50 (MOLT-4 leukemia): < 10 nM
- TGI (MOLT-4 leukemia): < 10 nM
- GI50 (SN12C renal): < 10 nM
- TGI (SN12C renal): 36.7 nM
- GI50 (EKVX NSCLC): 11.8 nM
- TGI (EKVX NSCLC): 76.3 nM
- GI50 (MALME-3M melanoma): < 10 nM
- TGI (MALME-3M melanoma): < 10 nM
- GI50 (CCRF-CEM leukemia): < 10 nM
- TGI (CCRF-CEM leukemia): 15.2 nM
- GI50 (UO-31 renal): < 10 nM
- TGI (UO-31 renal): 11800 nM
